For test [1], the system named is A875 cells. Description: Annexin V/PI flow cytometry apoptosis, A875. The test is classed as cell-based. As to conditions: 0, 50, 100, 200 μM, 48 h. As for the experimental part:
In this study, cell apoptosis was analyzed by flow cytometry using a PI/FITC-Annexin V Apoptosis Detection Kit (4A Biotech, Beijing, China). Briefly, melanoma cells were collected and washed with pre-chilled PBS, then resuspended with Annexin V staining buffer. Afterward, fluorescein isothiocyanate (FITC)-Annexin V and PI were stained for 5 min at RT, and then immediately detected using a Beckman flow cytometer. To investigate immune cell infiltration of the lung and spleen in the pulmonary metastasis mouse model, the surface and nuclear antigen staining were performed following the experimental procedure. Fluorescence-labeled mAb against CD3, CD25, CD49b, GranzymeB, CD11b, CD86, and CD206 were purchased from BioLegend (BioLegend, San Diego, CA), and CD4, CD8, and Foxp3 from Tonbo. […] Finally, the samples were measured using flow cytometry.
Fig. 3 Biopanning of PDPN antagonist peptides. […] B Immunofluorescence staining was performed to quantify the colocalization of CY12-RP2 and PDPN protein in melanoma cell lines (A375, A875). […] D Suppression efficiency of melanoma cells growth by CY12-RP2 was measured by CCK8 assay at various concentrations for 24, 48 or 72 h, respectively. […] G, H The 3D cellular spheres were treated with the set concentrations of CY12-RP2 for 5 days and cell morphology was assessed (G), relative spheroid diameter was measured (H). […]
Background: A flow cytometer gives signals particle by particle.

A further test deals with PBMC. Description: PBMC cytokines by ELISA. The class given is cell-based, healthy donor. As to conditions: 50 µM, 48 h. As for the experimental part:
PBMCs (Shenzhen People's Hospital. Shenzhen, China)) from a healthy donor were isolated using a density gradient centrifugation procedure. Firstly, the immune cell proportions analysis of PBMCs was measured using flow cytometry. We then investigated the effect of CY12-RP2 on the cytokines in PBMCs using ELISA assays. Briefly, PBMCs (5 × 10^5 cells/well) were cultured in 24-well plates with RPMI1640 containing 10% FBS for 24 h, and the cells were stimulated with CY12-RP2 (50 µM) for 48 h. Afterward, supernatants were collected for subsequent assays. […] The experimental results were then observed by crystal violet staining after 48 h. The levels of major inflammatory cytokines, including TNF-α, IL-1β, IL-2, TGF-β, IFN-γ, and IL-10, were measured using an ELISA kit (Shenzhen Ziker Biological Technology, Shenzen, China). Briefly, culture supernatants of cells and serum of pulmonary metastasis mouse model were respectively collected and added to an antibody pre-coated 96-well plates, and then followed up according to the manufacturer's instructions.
On the technique in general: ELISA stands for enzyme-linked immunosorbent assay.

Test [2] relates to A875 cells. Description: Colony formation, A875. The class given is cell-based.
A further test deals with A375 cells. In words: Wound healing (migration), A375. As to conditions: wound healing, 0, 5, 25 μM, 24 h or 48 h. The class given is cell-based. As for the experimental part: A375 GFP, A875 GFP, A375 PDPN^−/−, and A875 PDPN^+/+ cells were all seeded in 12-well plates at a density of 5 × 10^5 cells/well. When the cells reached 100% confluence the next day, the straight wound was scraped in each cultured well with a 20 µL pipette tip. Then the cells were washed repeatedly with complete DMEM to remove the cellular debris, and the medium was changed to a low serum medium containing 0.05% FBS. The scratch-treated cells were subsequently cultured for an additional indicated time and imaged at 0 h, 12 h, 24 h and 48 h. Quantification of wound closure was accomplished by measuring the distance between the phase contrast images’ anterior edges of the contralateral surfaces using ImageJ software. As for peptide (CY12-RP2) function experiments, images of phase contrast for A375 GFP and A875 GFP cells were captured at 0 h before peptide administration. The cells were then treated with CY12-RP2 (0 μM, 5 μM, 25 μM) for 24 h or 48 h, and then images were acquired again. Handling of the experimental results were carried out as previously described.

Test [3] deals with A375 xenograft tumor cells. In words: TUNEL immunofluorescence of xenograft tumors. The class given is in vivo, BALB/c nude mice. As for the experimental part: Fig. S4: The inhibition of cells metastasis and invasion by CY12-RP2 can be […]
(A, B) The inhibition of CY12-RP2 on the migration capacity of melanoma cell lines was reversed by SKL2001 (A). Statistical analysis was performed to determine the migrated distance (B). The power field scale bar, 100 μm. (C, D) Effect of CY12-RP2 on the invasive ability of melanoma cell lines were reversed by SKL2001 (C).
Statistical analysis was performed to count the invaded cells (D). The power field scale bar, 100 μm. (E) Western blot assay was also performed to detect the proteins related to EMT and Wnt/β-catenin signaling pathway, including N-cadherin, Vimentin, snail, Dvl2, Phospho-β-catenin-S675, β-catenin, Phospho-GSK3β-Ser9 and GSK3β by CY12-RP2 with or without SKL2001 (50 μM). Data are presented as mean ± SD. *p < […]
Fig. S5: Effects and toxicity of CY12-RP2 in vivo
(A) TUNEL analysis of apoptosis was conducted on orthotopic xenografts tumor sections using fluorescence staining. The power field scale bar, 100 μm. (B) Fluorescence staining of Ki67 was carried out on orthotopic xenograft tumor sections.
The power field scale bar, 100 μm. (C) Serum His-CY12-RP2 levels of the orthotopic xenografts mice treated by various dosage of CY12-RP2 were measured by His-ELISA kit. […]
kit. (E) Serum ALT, AST, TG, and γ-GT levels of the orthotopic xenografts model were measured by ELISA. […]

Peptide text beside a SMILES is read from it.

Regarding `CC(C)C[C@H](NC(=O)[C@H](Cc1ccc(O)cc1)NC(=O)[C@@H](N)[C@@H](C)O)C(=O)N[C@@H](CS)C(=O)N[C@H](C(=O)N[C@@H](C)C(=O)N[C@@H](CS)C(=O)N[C@@H](CC(=O)O)C(=O)N[C@@H](Cc1ccc(O)cc1)C(=O)N[C@H](C(=O)N[C@@H](Cc1c[nH]cn1)C(=O)N[C@@H](Cc1c[nH]cn1)C(=O)O)[C@@H](C)O)[C@@H](C)O` [CY12-RP2] (H-TYLCTACDYTHH-OH; N-terminus and C-terminus assumed), in the test with A875 cells [1], the apoptosis rate entry is listed as “milder”. Moreover, in the test with PBMC, the “IFN-γ level in PBMC supernatant” value is on record as “increased”, the “IL-1β level in PBMC supernatant” value is “increased”, the “IL-10 level in PBMC supernatant” value is given as “decreased” and the “TGF-β level in PBMC supernatant” value is listed as “decreased”. Moreover, the “TNF-α level in PBMC supernatant” value in the test with PBMC was “increased”. In addition, the colony formation entry in the test on A875 cells [2] is given as “only having inhibitory effects on A875 cells at high concentrations”. In the test with A375 cells, the migration entry is “inhibited migration at the corresponding time both in A375 and A875 cells, but A375 cells were more susceptible”. For the same compound, the “apoptotic tumor cells (TUNEL)” value in test [3] was “more apoptotic tumor cells were detected”.

The record behind these values is article PMC10759609, “A novel PDPN antagonist peptide CY12-RP2 inhibits melanoma growth via Wnt/β-catenin and modulates the immune cells” (Journal of Experimental & Clinical Cancer Research : CR, 2024).
